# Measurements: patent US20260199324A1, “METHOD OF TREATING BREAST CANCER” (Arvinas Operations, Inc., priority 2022, published 2026)
# Structures can show the parent of a compound that is named as a salt.
# Assays:
# P-gp = molecular target: T1, P-gp (Homo sapiens, UniProt P08183); test: Phase 1 open-label fixed-sequence 2-period drug-drug interaction study: effect of single oral dose of Compound A on PK of dabigatran (P-gp probe substrate); format: in vivo; conditions: co-administration of Compound A with dabigatran in healthy participants
# T1 construct: from tissue; host or cells: intestine of healthy human participants (in vivo)
# Source text: Compound A was investigated in an interventional, Phase 1, open-label, fixed sequence, 2-period study to evaluate the effect of a single oral dose of Compound A on the PK of dabigatran in healthy participants.
# The objective of this drug-drug interaction study was to evaluate the impact of Compound A on the PK of dabigatran etexilate (a model substrate for P-gp) in healthy adults (NCT05673889)
# All participants in this study received one dose of dabigatran etexilate mesylate alone by mouth in Period 1. In Period 2, everyone received one dose of dabigatran etexilate mesylate by mouth approximately 90 mins after receiving one dose of Compound A by mouth. The levels of dabigatran in Period I were compared to the levels of dabigatran in Period 2. This study design was used to determine if and how Compound A affects dabigatran absorption into the body in healthy adults.
# This was a Phase 1, open-label, 2-period, fixed-sequence study to estimate the effect of a single oral dose of Compound A on the PK of a P-gp substrate, dabigatran etexilate (as mesylate), in healthy male participants and female participants with nonchildbearing potential. […]
# Natural log transformed parameters (AUCinf [if data permitted], AUClast, and Cmax) of total dabigatran were analyzed using a mixed effect model with treatment as a fixed effect and participant as a random effect. […]
# [1] = Safety and tolerability (TEAEs, clinical laboratory tests, vital signs, ECGs) in the Phase 1 drug-drug interaction study; format: in vivo, human; conditions: for number of all-causality adverse events (AEs): 24 participants
# Source text: This was a Phase 1, open-label, 2-period, fixed-sequence study to estimate the effect of a single oral dose of Compound A on the PK of a P-gp substrate, dabigatran etexilate (as mesylate), in healthy male participants and female participants with nonchildbearing potential.
# On Period 1 Day 1, a standard breakfast (approximately 700 calories with a fat content of approximately 35%) was provided prior to dosing. The standard breakfast was required to be completely consumed within an approximately 20-minute period. A single dose of 75 mg dabigatran etexilate (as mesylate) (as 1 capsule of 75 mg) was administered approximately 2 hrs (120 mins) after starting the standard breakfast. To adequately remove any drug effects of dabigatran, a minimum washout period of 4 days was required after dabigatran etexilate (as mesylate) administration on Period 1 Day 1. Serial PK samples were collected up to 48 hrs after single dose administration to determine dabigatran PK parameters (total).
# On Period 2 Day 1, a standard breakfast (approximately 700 calories with a fat content of approximately 35%) was provided prior to Compound A and dabigatran etexilate (as mesylate) dosing. The standard breakfast was required to be the same as provided in Period 1 Day 1 and was required to be completely consumed within an approximately 20-minute period. A single dose of 200 mg Compound A (as 2 tablets of 100 mg) was administered approximately 10 mins after the completion of the breakfast. A single dose of 75 mg dabigatran etexilate
# (as mesylate) (as 1 capsule of 75 mg) was administered approximately 1.5 hour (90 mins) after the start of Compound A dosing, which was approximately 2 hrs (120 mins) after the start of the breakfast. Serial PK samples were collected up to 48 hrs post dabigatran etexilate (as mesylate) dosing to determine the single dose PK parameters of Compound A and dabigatran (total) • Masking: No masking (open label) • Enrollment number: 24
# Compound A co-administered with dabigatran etexilate mesylate was the test treatment. All safety analyses were performed on the safety analysis set. Safety data were presented in tabular and/or graphical format and summarized descriptively, where appropriate in accordance with the Clinical Data Interchange Standards Consortium Standards […].
# [2] = Biopharmaceutics Classification System class; format: physicochemical; conditions: low solubility/low permeability
# ER = molecular target: T2, ER (Homo sapiens, UniProt P03372); test: ER degradation; format: cell-based
# T2 sequence (P03372 1-595): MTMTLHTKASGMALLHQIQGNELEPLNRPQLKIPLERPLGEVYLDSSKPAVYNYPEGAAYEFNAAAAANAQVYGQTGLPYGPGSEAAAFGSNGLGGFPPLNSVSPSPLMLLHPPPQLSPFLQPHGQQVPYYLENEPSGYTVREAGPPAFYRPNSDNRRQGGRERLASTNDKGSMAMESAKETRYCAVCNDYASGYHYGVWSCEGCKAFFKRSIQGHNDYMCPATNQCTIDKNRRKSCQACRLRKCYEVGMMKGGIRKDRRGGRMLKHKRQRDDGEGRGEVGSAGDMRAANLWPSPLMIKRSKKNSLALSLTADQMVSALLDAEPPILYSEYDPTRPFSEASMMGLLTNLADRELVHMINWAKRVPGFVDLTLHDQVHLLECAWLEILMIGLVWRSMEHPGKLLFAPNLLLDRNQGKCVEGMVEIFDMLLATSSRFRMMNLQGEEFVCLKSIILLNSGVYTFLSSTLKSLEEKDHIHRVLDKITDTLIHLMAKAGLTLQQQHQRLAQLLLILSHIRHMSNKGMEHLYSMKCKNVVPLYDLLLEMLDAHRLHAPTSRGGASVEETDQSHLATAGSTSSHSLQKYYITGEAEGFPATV
# [3] = Preclinical exposure of epimer Compound B compared to Compound A; format: in vivo; conditions: preclinical data; Compound B formed by interconversion (epimer) of Compound A
# [4] = tested on: ER-dependent transcription; test: Antagonism of ER-dependent transcription; format: cell-based
# [5] = Compound A 200 mg and dabigatran etexilate mesylate 75 mg, not considered treatment related
# [6] = single dose Compound A 200 mg and dabigatran etexilate mesylate 75 mg
# [7] = single dose Compound A 200 mg and dabigatran etexilate mesylate 75 mg (Treatment Period 2)
# [8] = dabigatran etexilate mesylate 75 mg alone
# [9] = dabigatran etexilate mesylate 75 mg alone, considered treatment related
# [10] = dabigatran etexilate mesylate 75 mg alone, not considered treatment related
# [11] = single dose dabigatran etexilate mesylate 75 mg (Treatment Period 1)
# T1 sequence (P08183 whole entry): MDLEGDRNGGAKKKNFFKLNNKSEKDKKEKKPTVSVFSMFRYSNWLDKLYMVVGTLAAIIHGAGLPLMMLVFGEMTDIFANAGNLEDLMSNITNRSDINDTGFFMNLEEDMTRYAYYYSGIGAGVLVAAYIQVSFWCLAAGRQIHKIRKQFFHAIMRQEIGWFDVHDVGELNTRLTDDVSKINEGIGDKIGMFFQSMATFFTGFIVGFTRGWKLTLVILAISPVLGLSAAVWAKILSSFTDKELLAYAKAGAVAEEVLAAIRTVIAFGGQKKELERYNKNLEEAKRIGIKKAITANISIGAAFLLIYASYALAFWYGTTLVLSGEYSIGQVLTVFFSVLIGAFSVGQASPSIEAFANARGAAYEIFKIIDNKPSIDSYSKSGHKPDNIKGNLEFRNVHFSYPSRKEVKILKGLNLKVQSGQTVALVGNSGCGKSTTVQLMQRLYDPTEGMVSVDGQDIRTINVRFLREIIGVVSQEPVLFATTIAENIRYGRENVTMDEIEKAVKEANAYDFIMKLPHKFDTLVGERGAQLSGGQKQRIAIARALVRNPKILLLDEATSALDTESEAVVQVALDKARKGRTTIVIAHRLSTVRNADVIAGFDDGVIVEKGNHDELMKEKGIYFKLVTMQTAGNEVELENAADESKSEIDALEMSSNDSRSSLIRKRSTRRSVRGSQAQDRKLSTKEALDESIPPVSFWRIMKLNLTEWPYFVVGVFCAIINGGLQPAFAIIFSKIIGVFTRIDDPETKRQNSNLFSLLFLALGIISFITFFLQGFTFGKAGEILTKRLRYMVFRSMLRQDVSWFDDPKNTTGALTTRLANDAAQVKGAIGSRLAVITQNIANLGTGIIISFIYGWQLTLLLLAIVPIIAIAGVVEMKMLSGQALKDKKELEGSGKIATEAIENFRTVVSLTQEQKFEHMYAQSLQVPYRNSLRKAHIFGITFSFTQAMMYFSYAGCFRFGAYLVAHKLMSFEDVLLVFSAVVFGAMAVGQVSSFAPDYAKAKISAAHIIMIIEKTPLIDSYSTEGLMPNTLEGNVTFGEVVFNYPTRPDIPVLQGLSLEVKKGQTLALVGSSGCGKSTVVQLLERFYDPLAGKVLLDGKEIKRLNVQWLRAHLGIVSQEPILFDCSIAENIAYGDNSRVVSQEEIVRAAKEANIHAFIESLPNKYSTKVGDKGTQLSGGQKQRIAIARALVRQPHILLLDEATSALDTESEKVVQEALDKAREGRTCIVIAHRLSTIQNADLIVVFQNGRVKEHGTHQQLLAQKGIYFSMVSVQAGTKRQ
compound,measurement,setting,value
"O=C1CC[C@H](N2Cc3cc(N4CCN(CC5CCN(c6ccc([C@@H]7c8ccc(O)cc8CC[C@@H]7c7ccccc7)cc6)CC5)CC4)ccc3C2=O)C(=O)N1 [Compound A, (S)-3-(5-(4-((1-(4-((1R,2S)-6-hydroxy-2-phenyl-1,2,3,4-tetrahydronaphthalen-1-yl)phenyl)piperidin-4-yl)methyl)piperazin-1-yl)-1-oxoisoindolin-2-yl) piperidine-2,6-dione]",P-gp inhibition (conclusion from increased dabigatran exposure),P-gp,P-gp inhibitor
same,participants with moderate AE of contusion,[1]; Compound A 200 mg and dabigatran etexilate mesylate 75 mg,1 (4.2%) participants (%)
same,participants with moderate AE of headache,"[1]; Compound A 200 mg and dabigatran etexilate mesylate 75 mg, considered treatment related",1 (4.2%) participants (%)
same,participants with mild AE of contusion,[1]; [5],1 (4.2%) participants (%)
same,participants with mild AE of oropharyngeal pain,[1]; [5],1 (4.2%) participants (%)
same,participants with mild AE of rhinorrhea,[1]; [5],1 (4.2%) participants (%)
same,participants with mild AE of wound,[1]; [5],1 (4.2%) participants (%)
same,participants with Leukocyte Esterase ≥1,[1]; [6],1 (4.2%) participants (%)
same,participants with Monocytes/Leukocytes >1.2×ULN,[1]; [6],2 (8.3%) participants (%)
same,number of AEs considered treatment related,[1]; [7],1
same,participants with all-causality AEs (TEAEs),[1]; [7],6 (25.0%) participants (%)
same,number of all-causality adverse events (AEs),[1]; [7],7
same,participants with treatment related AEs,"[1]; single dose Compound A 200 mg and dabigatran etexilate mesylate 75 mg (Treatment Period 2), headache",1 (4.2%) participants (%)
same,Biopharmaceutics Classification System class,[2],Class IV
O=C1CC[C@@H](N2Cc3cc(N4CCN(CC5CCN(c6ccc([C@@H]7c8ccc(O)cc8CC[C@@H]7c7ccccc7)cc6)CC5)CC4)ccc3C2=O)C(=O)N1 [Compound B],degradation of the ER,ER,does not degrade the ER
same,exposure of Compound B compared to Compound A,[3],< 26%
same,antagonism of ER-dependent transcription compared to Compound A,[4],similar
"CCCCCCOC(=O)NC(=N)c1ccc(NCc2nc3cc(C(=O)N(CCC(=O)OCC)c4ccccn4)ccc3n2C)cc1 [dabigatran etexilate mesylate, β-Alanine, N-[[2-[[[4-[[[(hexyloxy)carbonyl]amino]iminomethyl]phenyl]amino]methyl]-1-methyl-1H-benzimidazol-5-yl]carbonyl]-N-2-pyridinyl-, ethyl ester]",participants with mild AE of dry throat,[1]; [8],1 (4.2%) participants (%)
same,participants with mild AE of lip dry,[1]; [8],1 (4.2%) participants (%)
same,participants with mild AE of diarrhea,[1]; [9],1 (4.2%) participants (%)
same,participants with mild AE of dry skin,[1]; [9],1 (4.2%) participants (%)
same,participants with mild AE of hot flush,[1]; [9],1 (4.2%) participants (%)
same,participants with mild AE of nausea,[1]; [9],1 (4.2%) participants (%)
same,participants with moderate AE of hematoma,[1]; [10],2 (8.3%) participants (%)
same,participants with moderate AE of myalgia,[1]; [10],1 (4.2%) participants (%)
same,participants with Monocytes/Leukocytes >1.2× upper limit of normal (ULN),[1]; single dose dabigatran etexilate mesylate 75 mg,2 (8.3%) participants (%)
same,number of AEs considered treatment related,[1]; [11],4
same,participants with all-causality AEs (TEAEs),[1]; [11],6 (25.0%) participants (%)
same,participants with treatment related AEs,[1]; [11],3 (12.5%) participants (%)
same,number of all-causality adverse events (AEs),[1]; [11],9
"[H]/N=C(/N)c1ccc(NCc2nc3cc(C(=O)N(CCC(=O)O)c4ccccn4)ccc3n2C)cc1 [dabigatran, 3-[[2-[(4-carbamimidoylanilino)methyl]-1-methylbenzimidazole-5-carbonyl]-pyridin-2-ylamino]propanoic acid]",participants with all-causality AEs (TEAEs),[1]; [11],6 (25.0%) participants (%)
same,participants with treatment related AEs,[1]; [11],3 (12.5%) participants (%)
